# Reference: ChEMBL document CHEMBL4422618, “Translational impact of novel widely pharmacological characterized mofezolac-derived COX-1 inhibitors combined with bortezomib on human multiple myeloma cell lines viability” (Eur J Med Chem, 2019)
# Activity calls are given as the source filed them. The rule behind the calls is not given here.
# Columns and labels:
# Platelet = assay: Antiplatelet activity in human platelet rich plasma assessed as inhibition of arachidonic acid-induced platelet aggregation preincubated for 2 mins followed by arachidonic acid addition by turbidimetric method; format: functional, cell-based
# Plasma [1] = assay: Anticoagulant activity in human platelet poor plasma assessed as activated partial thromboplastin time at 100 uM incubated for 15 mins at room temperature and subsequent incubation for 2 mins at 37 degreeC followed by cephalin addition and measured after 2 mins for every secs in presence of CaCl2; format: functional
# Plasma [2] = assay: Anticoagulant activity in human platelet poor plasma assessed as prothrombin time at 100 uM incubated for 15 mins at room temperature and subsequent incubation for 2 mins at 37 degreeC followed by PBS addition and measured after 3 mins for every secs in presence of calcium thromboplastin; format: functional
# [3] = Hemolytic activity in erythrocytes (unknown origin) at 100 uM after 3 hrs by spectrophotometric analysis; format: ADME, cell-based, Erythrocyte; conditions: read-out: Activity
# [4] = Mutagenicity in Salmonella typhimurium TA97 at 500 uM by Ames test; format: toxicity; conditions: salmonella enterica subsp. enterica serovar typhimurium
# [5] = Mutagenicity in Salmonella typhimurium TA98 at 500 uM by Ames test; format: toxicity; conditions: salmonella enterica subsp. enterica serovar typhimurium
# [6] = Mutagenicity in Salmonella typhimurium TA100 at 500 uM by Ames test; format: toxicity; conditions: salmonella enterica subsp. enterica serovar typhimurium
# [7] = Mutagenicity in Salmonella typhimurium TA102 at 500 uM by Ames test; format: toxicity; conditions: salmonella enterica subsp. enterica serovar typhimurium
# [8] = Genotoxicity in Escherichia coli PQ35 at 500 uM after overnight incubation by SOS chromotest; format: toxicity
# [9] = Genotoxicity in Escherichia coli PQ37 at 500 uM after overnight incubation by SOS chromotest; format: toxicity
# RPMI-8226 [10] = assay: Cytotoxicity against human RPMI8226 cells assessed as reduction in cell viability at […] after 48 hrs by CCK8 assay relative to control; format: functional
# NCI-H929 [11] = assay: Potentiation of bortezomib-induced cytotoxicity against human NCI-H929 cells assessed as reduction in cell viability at […] after 48 hrs in presence of bortezomib by CCK8 assay; format: functional, cell-based
# NCI-H929 [12] = assay: Potentiation of bortezomib-induced cytotoxicity against human NCI-H929 cells assessed as reduction in cell viability at 42 nM after 48 hrs in presence of bortezomib by CCK8 assay; format: functional, cell-based
# RPMI-8226 [13] = assay: Potentiation of bortezomib-induced cytotoxicity against human RPMI8226 cells assessed as reduction in cell viability at 1.7 uM after 48 hrs in presence of bortezomib by CCK8 assay; format: functional
# NCI-H929 [14] = assay: Induction of apoptosis in human NCI-H929 cells assessed as early apoptotic cells at 1.7 uM after 48 hrs by Annexin-V/propidium iodide staining based flow cytometric method (reference value: 17.1%); format: functional
# NCI-H929 [15] = assay: Induction of apoptosis in human NCI-H929 cells assessed as late apoptotic cells at 1.7 uM after 48 hrs by Annexin-V/propidium iodide staining based flow cytometric method (reference value: 0.23%); format: functional
# NCI-H929 [16] = assay: Induction of apoptosis in human NCI-H929 cells assessed as necrotic cells at 1.7 uM after 48 hrs by Annexin-V/propidium iodide staining based flow cytometric method (reference value: 0.0034%); format: functional
# NCI-H929 [17] = assay: Induction of apoptosis in human NCI-H929 cells assessed as viable cells at 1.7 uM after 48 hrs by Annexin-V/propidium iodide staining based flow cytometric method (reference value: 82.6%); format: functional; conditions: NCI-H929, 48 h, read-out: Activity
# NCI-H929 [18] = assay: Induction of apoptosis in human NCI-H929 cells assessed as early apoptotic cells at 1.7 uM after 48 hrs in presence of bortezomib by Annexin-V/propidium iodide staining based flow cytometric method (reference value: 17.1%); format: functional
# NCI-H929 [19] = assay: Induction of apoptosis in human NCI-H929 cells assessed as late apoptotic cells at 1.7 uM after 48 hrs in presence of bortezomib by Annexin-V/propidium iodide staining based flow cytometric method (reference value: 0.23%); format: functional
# NCI-H929 [20] = assay: Induction of apoptosis in human NCI-H929 cells assessed as necrotic cells at 1.7 uM after 48 hrs in presence of bortezomib by Annexin-V/propidium iodide staining based flow cytometric method (reference value: 0.0034%); format: functional
# NCI-H929 [21] = assay: Induction of apoptosis in human NCI-H929 cells assessed as viable cells at 1.7 uM after 48 hrs in presence of bortezomib by Annexin-V/propidium iodide staining based flow cytometric method (reference value: 82.6%); format: functional; conditions: NCI-H929, 48 h, read-out: Activity
# RPMI-8226 [22] = assay: Induction of apoptosis in human RPMI8226 cells assessed as early apoptotic cells at 1.7 uM after 48 hrs in presence of bortezomib by Annexin-V/propidium iodide staining based flow cytometric method (reference value: 1.05%); format: functional
# RPMI-8226 [23] = assay: Induction of apoptosis in human RPMI8226 cells assessed as late apoptotic cells at 1.7 uM after 48 hrs in presence of bortezomib by Annexin-V/propidium iodide staining based flow cytometric method (reference value: 0.21%); format: functional
# RPMI-8226 [24] = assay: Induction of apoptosis in human RPMI8226 cells assessed as necrotic cells at 1.7 uM after 48 hrs in presence of bortezomib by Annexin-V/propidium iodide staining based flow cytometric method (reference value: 0.090%); format: functional
# RPMI-8226 [25] = assay: Induction of apoptosis in human RPMI8226 cells assessed as viable cells at 1.7 uM after 48 hrs in presence of bortezomib by Annexin-V/propidium iodide staining based flow cytometric method (reference value: 98.7%); format: functional; conditions: RPMI-8226, 48 h, read-out: Activity
# RPMI-8226 [26] = assay: Cell cycle arrest in human RPMI8226 cells assessed as accumulation at G0/G1 phase at 1.7 uM in presence of bortezomib after 48 hrs by propidium iodide/RNase staining based flow cytometric method relative to bortezomib; format: functional
# RPMI-8226 [27] = assay: Cell cycle arrest in human RPMI8226 cells assessed as accumulation at S phase at 1.7 uM in presence of bortezomib after 48 hrs by propidium iodide/RNase staining based flow cytometric method relative to bortezomib; format: functional
# RPMI-8226 [28] = assay: Cell cycle arrest in human RPMI8226 cells assessed as reduction in accumulation at G2/M phase at 1.7 uM in presence of bortezomib after 48 hrs by propidium iodide/RNase staining based flow cytometric method relative to bortezomib; format: functional
# RPMI-8226 [29] = assay: Cell cycle arrest in human RPMI8226 cells assessed as accumulation at G0/G1 phase at 1.7 uM after 48 hrs by propidium iodide/RNase staining based flow cytometric method; format: functional
# RPMI-8226 [30] = assay: Cell cycle arrest in human RPMI8226 cells assessed as accumulation at S phase at 1.7 uM after 48 hrs by propidium iodide/RNase staining based flow cytometric method; format: functional
compound,measurement,setting,value
CC(=O)Oc1ccccc1C(=O)O [ASPIRIN],IC50,Platelet,1110 nM
same,APTT,Plasma [1],50.3 s
same,PT,Plasma [2],14.6 s
same,"hemolysis at 3 h, 100 µM",[3],0%
same,Activity,[4],Non-Toxic
same,Activity,[5],Non-Toxic
same,Activity,[6],Non-Toxic
same,Activity,[7],Non-Toxic
same,Activity,[8],Non-Toxic
same,Activity,[9],Non-Toxic
same,Activity,RPMI-8226 [10],7%
same,Activity,NCI-H929 [11],inactive
same,Activity,NCI-H929 [12],inactive
same,Activity,RPMI-8226 [13],66%
same,Activity,NCI-H929 [14],16%
same,Activity,NCI-H929 [15],0.072%
same,Activity,NCI-H929 [16],0.016%
same,viability at 1.7 µM,NCI-H929 [17],83.9%
same,Activity,NCI-H929 [18],54.6%
same,Activity,NCI-H929 [19],0.12%
same,Activity,NCI-H929 [20],0.026%
same,viability at 1.7 µM,NCI-H929 [21],45.2%
same,Activity,RPMI-8226 [22],7.95%
same,Activity,RPMI-8226 [23],0.48%
same,Activity,RPMI-8226 [24],0.014%
same,viability at 1.7 µM,RPMI-8226 [25],91.6%
same,Activity,RPMI-8226 [26],Active
same,Activity,RPMI-8226 [27],Active
same,Activity,RPMI-8226 [28],Active
same,Activity,RPMI-8226 [29],inactive
same,Activity,RPMI-8226 [30],inactive
